Source: US20200071773A1, “TUMOR SIGNATURE FOR METASTASIS, COMPOSITIONS OF MATTER METHODS OF USE THEREOF” (Massachusetts Eye and Ear Infirmary, priority 2017, published 2020)
Entries after “also recorded” stand apart in the source; their conditions may differ.

B1: TGF4β3: recombinant TGFβ3 (R&D systems), CAF-related ligand (protein, UniProt P10600 301-412, looked up)
Transforming growth factor …: ALDTNYCFRNLEENCCVRPLYIDFRQDLGWKWVHEPKGYYANFCSGPCPYLRSADTTHSTVLGLYNTLNPEASASPCCVPQDLEPLTILYYVGRTPKVEQLSNMVVKSCKCS

How the values were obtained:
Format in all cases: cell-based, human
SCC9 cells [1] = experiment: scRNA-seq p-EMT gene expression score of treated SCC9 cells; conditions: scRNA-seq 4 hours after treatment, relative to vehicle, TGFβ 10 ng/mL, inhibitors: 1 μM A-83-01, or DMH-1, A-83-01, CHIR99021 and Y-27632
Procedure: RNA-seq of Cell Lines. For scRNA-seq, cells were harvested, stained for viability, and sorted into 96-well plates, as described above. cDNA synthesis, library construction, and sequencing were also performed as described. For bulk RNA, RNA was isolated from 1,000 pooled cells using RNEasy Micro Kit (Qiagen).
(§1) TGFβ Treatment and TGFBI Overexpression. For drug treatment experiments, SCC9 cells were grown in vehicle (4 μM HCl with 1 μg/mL BSA), TGFβ, or TGFβ-inhibitor. For TGFβ-treated cells, 10 ng/mL recombinant TGFβ1 (R&D Systems, Minneapolis, Minn.) or TGFβ3 (R&D systems) was applied. Cells in the TGFβ-inhibitor condition were either grown in 3:1 F12:DMEM (ThermoFisher Scientific) with 1 μM A-83-01 (Tocris Bioscience, Bristol, UK) or small airway basal medium (Lonza, Basel, Switzerland) with four inhibitors of the TGFβ pathway: 1 μM DMH-1, 1 μM A-83-01, 1 μM CHIR99021 (Tocris Bioscience), and 10 μM Y-27632 (Selleck Chemicals, Houston, Tex.). For scRNA-seq, cells in each condition were harvested 4 hours after treatment. […]
Defining Cell and Sample Scores. […] However, such initial scores may be confounded by cell complexity, as cells with higher complexity have more genes detected (i.e. less zeros) and consequently would be expected to have higher cell scores for any gene-set. […] First, all analyzed genes are binned into 25 bins of equal size based on their aggregate expression levels (Ea). […]

SCC9 cells [2] = experiment: Matrigel invasion assay
Procedure: TGFβ Treatment and TGFBI Overexpression. For drug treatment experiments, SCC9 cells were grown in vehicle (4 μM HCl with 1 μg/mL BSA), TGFβ, or TGFβ-inhibitor. For TGFβ-treated cells, 10 ng/mL recombinant TGFβ1 (R&D Systems, Minneapolis, Minn.) or TGFβ3 (R&D systems) was applied. Cells in the TGFβ-inhibitor condition were either grown in 3:1 F12:DMEM (ThermoFisher Scientific) with 1 μM A-83-01 (Tocris Bioscience, Bristol, UK) or small airway basal medium (Lonza, Basel, Switzerland) with four inhibitors of the TGFβ pathway: 1 μM DMH-1, 1 μM A-83-01, 1 μM CHIR99021 (Tocris Bioscience), and 10 μM Y-27632 (Selleck Chemicals, Houston, Tex.). For scRNA-seq, cells in each condition were harvested 4 hours after treatment. For bulk RNA-seq, cells were harvested 2, 4, or 6 days after treatment and titrated for analysis. For matrigel invasion assay and cell proliferation assays, cells were maintained in the given conditions for the duration of the experiment.
Matrigel Invasion Assay. Matrigel invasion assay was performed as previously described (Puram et al., 2012). […] Cells on the lower surface of the membrane were fixed with methanol, stained with crystal violet, and counted in a blinded manner. […]
Matrigel Invasion Assay. […] Invaded cells in each well were counted in a blinded manner across four distinct high powered fields and averaged. Error was calculated as SEM for a representative experiment.

SCC9 cells [3] = experiment: CellTiter-Glo cell proliferation assay; conditions: relative to vehicle
Procedure: as §1
Cell Proliferation Assay. […] Cells were lysed on days 2, 4, and 6 by adding CTG reagent (Promega), and point luminescence was measured via the BioTek Synergy HTX Platereader (BioTek, Winooski, Vt.). […] CTG luminescence values for individual wells were normalized by subtracting background luminescence (mean luminescence values for wells containing PBS, with CTG reagent added), adjusting for 2 μM adenosine triphosphate (ATP) luminescence measured on the same 96-well plate, and normalizing by numbers of plated cells in each condition (as measured by T0 luminescence).
Cell Proliferation Assay. […] Error was calculated as SEM for a representative experiment.

Row | Molecule | p-EMT program / p-EMT gene expression score (SCC9 cells [1]) | TGFβ response (invasiveness) after genetic inactivation of TGFBI (SCC9 cells [2]; SCC9 TGFBI CRISPR knockout cells versus mock infected) | relative invasiveness (SCC9 cells [2]; SCC9 cells, 24 hours, relative to vehicle) | relative proliferation (SCC9 cells [3])
1 | TGFβ | coherent induction; also recorded: induce a p-EMT-like program | abrogated | increased | reduced
2 | B1 | increased |  |  | 
